The test concerns ERT-experienced patients with Fabry disease and migalastat-amenable GLA variants. As to the kind of experiment: Composite clinical outcomes (CCOs) in ATTRACT (AT1001-012) and open-label extension studies AT1001-041/AT1001-042, Phase 3. In kind it is in vivo, human. The conditions noted are these: for Incidence rate of composite clinical outcomes (CCOs): all patients; for Median time to first CCO: overall. An excerpt: Patients initiated ERT ≥12 months prior to the study.
AT1001-041 (NCT01458119) was a long-term OLE study evaluating the long-term safety and efficacy of migalastat in patients completing a previous migalastat study.
AT1001-042 (NCT02194985) is an ongoing, long-term OLE study evaluating the long-term safety and efficacy of migalastat in patients who participated in AT1001-012 or AT1001-041.
CCOs were defined prior to the planned analysis and included: • Renal events (a decrease in eGFRCKD-EPI≥15 mL/min/1.73 m^2, with the decreased eGFR<90 mL/min/1.73 m^2 relative to baseline; or an increase in 24-hour urine protein≥33%, with elevated protein≥300 mg relative to baseline) • Cardiac events (myocardial infarction; unstable cardiac angina; new symptomatic arrhythmia requiring antiarrhythmic medication, direct current cardioversion, pacemaker, or defibrillator implantation; congestive heart failure [New York Association Class III or IV]) • Cerebrovascular events (stroke or transient ischemic attack) • Death
Exposure to migalastat was calculated from the day of the first dose to the last available data point or the date of discontinuation; for this analysis, the exposure to ERT comprised the duration of participation in the ATTRACT study, and lasted up to 18 months.
Incidence rates were calculated for renal, cerebrovascular, and cardiac events separately and for the composite clinical outcomes. All individual events were accounted for when calculating incidence. Median times to the first clinical event were calculated based on the same data used for the incidence rates.
A direct comparison between migalastat and ERT was based on the 18 months exposure (the ERT data were from first 18 months in ATTRACT only); in addition, the incidence of CCOs for the whole follow-up period was calculated for migalastat (ATTRACT and subsequent OLE studies)
The long-term incidence for migalastat was calculated based on all available data for migalastat.

For the molecule `Cl.OC[C@H]1NC[C@H](O)[C@@H](O)[C@H]1O` [Migalastat, (2R,3S,4R,5S)-2-(hydroxymethyl) piperdine-3,4,5-triol], the “Incidence rate of composite clinical outcomes (CCOs)” value was found to be 0.41 per patient·year (first 18 months of treatment) and 0.45 per patient·year (long-term follow-up, at the data cutoff (median 4.8 years)). Moreover, the “Median time to first composite clinical outcome” value reads like this: (females, 0-4.8 years) 1.15 Years; (males, 0-4.8 years) 1.30 Years. Besides, the “Incidence rate, cardiac event” value by setting is: (females, at 4.8 years) 0.02 per patient·year; (females, at 18 months) 0.05 per patient·year; (males, at 4.8 years) 0.04 per patient·year; (males, at 18 months) 0.07 per patient·year. Besides, the “Incidence rate, cerebrovascular event” value by setting is: (females, at 4.8 years) 0.02 per patient·year; (females, at 18 months) 0 per patient·year; (males, at 4.8 years) 0.01 per patient·year; (males, at 18 months) 0 per patient·year. For the same molecule, the “Incidence rate, death” value came to 0 per patient·year (females, at 4.8 years); 0 per patient·year (females, at 18 months); 0 per patient·year (males, at 4.8 years); 0 per patient·year (males, at 18 months). Also, the “Incidence rate, renal event” value (females, at 4.8 years) is 0.33 per patient·year; the “Incidence rate, renal event” value (females, at 18 months) was 0.29 per patient·year; the “Incidence rate, renal event” value (males, at 4.8 years) stood at 0.51 per patient·year; the “Incidence rate, renal event” value (males, at 18 months) is 0.43 per patient·year. Moreover, the “Incidence rate, composite clinical outcome” value is, setting by setting: (females, at 4.8 years (data cutoff)) 0.37 per patient·year; (females, at 18 months) 0.34 per patient·year; (males, at 4.8 years (data cutoff)) 0.56 per patient·year; (males, at 18 months) 0.50 per patient·year. For the same molecule, under “migalastat exposure (0-4.8 years)”, the “Median time to first CCO” value is reported as 1.17 years.

B1: ERT: enzyme replacement therapy: infusion of purified α-Gal A, e.g. agalsidase alfa (Replagal) or agalsidase beta (Fabrazyme) (protein, UniProt P06280 32-429, looked up)
Alpha-galactosidase A: LDNGLARTPTMGWLHWERFMCNLDCQEEPDSCISEKLFMEMAELMVSEGWKDAGYEYLCIDDCWMAPQRDSEGRLQADPQRFPHGIRQLANYVHSKGLKLGIYADVGNKTCAGFPGSFGYYDIDAQTFADWGVDLLKFDGCYCDSLENLADGYKHMSLALNRTGRSIVYSCEWPLYMWPFQKPNYTEIRQYCNHWRNFADIDDSWKSIKSILDWTSFNQERIVDVAGPGGWNDPDMLVIGNFGLSWNQQVTQMALWAIMAAPLFMSNDLRHISPQAKALLQDKDVIAINQDPLGKQGYQLRQGDNFEVWERPLSGLAWAVAMINRQEIGGPRSYTIAVASLGKGVACNPACFITQLLPVKRKLGFYEWTSRLRSHINPTGTVLLQLENTMQMSLKDLL
On to B1, for which the “Incidence rate of composite clinical outcomes (CCOs)” value (first 18 months of treatment) is on record as 0.85 per patient·year. Further, the “Median time to first composite clinical outcome” value (females, 0-18 months) stood at 0.35 Years. In addition, under “females, at 18 months”, the “Incidence rate, cardiac event” value was found to be 0.42 per patient·year; the “Incidence rate, cerebrovascular event” value is given as 0 per patient·year; the “Incidence rate, composite clinical outcome” value is on record as 0.98 per patient·year; the “Incidence rate, death” value was 0 per patient·year. Besides, the “Incidence rate, renal event” value (females, at 18 months) is recorded as 0.56 per patient·year. Also, the “Median time to first composite clinical outcome” value (males, 0-18 months) came to 0.25 Years. Under “males, at 18 months”, the “Incidence rate, cardiac event” value is recorded as 0 per patient·year; the “Incidence rate, cerebrovascular event” value came to 0.10 per patient·year; the “Incidence rate, composite clinical outcome” value amounted to 0.68 per patient·year; the “Incidence rate, death” value came to 0 per patient·year. Further, the “Incidence rate, renal event” value (males, at 18 months) stood at 0.58 per patient·year. Also, the “Median time to first CCO” value (ERT exposure (0-18 months)) is 0.25 years.
